Measured values reported in patent US12194046B2 (priority 2021, dated 2025).

How the values were obtained:
[1] = Pharmacokinetic study: plasma and brain concentrations after a single oral (gavage) dose in rats; assay type: in vivo, Sprague-Dawley rats; details: oral gavage 2 mg/kg
Source text: Serial blood samples were collected from three animals per group per timepoint prior to dosing and at 0.25, 0.5, 1, 2, 3 4, 6, 8, 10, 12, and 14-hours post dose. No more than three blood samples were collected from individual animals with the last sample being a terminal blood draw. Terminal brain samples were collected from three animals per group at 1, 4, 8, and 14-hours post dose. Blood samples were collected into tubes containing sodium heparin, and then processed for plasma and stored frozen until bioanalysis. Brain samples were collected following the terminal blood collection, rinsed with saline, and stored frozen until bioanalysis.
Non-compartmental pharmacokinetic parameter estimates were calculated from the mean plasma concentration-time data.
Animals were fasted overnight prior to dose administration. Water was provided ad libitum. Food was returned after the collection of the 4-hour samples.
Prior to dosing, the body weight of each animal was recorded. Doses (rounded to the nearest 0.001 mL) were calculated based on the pretreatment body weight (kg) and a dose volume of 10 mL/kg. […] Dosing syringes were weighed immediately prior to and immediately after dosing each animal, and the quantity of formulation administered to each animal was determined from the difference in syringe weights.
Immediately after the 1, 4, 8 and 14-hour blood collections, three animals/group were euthanized and the brain was dissected out of each rat. […] Brain weights were calculated for each sample. […]
The concentration-time data were analyzed to fit an extra-vascular (oral gavage) dosing plasma analysis model (200) using the software WinNonlin Phoenix version 6.3 (Pharsight).
Areas-under-the-plasma concentration-time curves (AUC) were estimated using the linear trapezoidal rule. […] Apparent T1/2 was calculated using the slope of the log-linear terminal phase of the concentration-time curve, defined by a minimum of three plasma concentration-time points. Half-lives are reported if the correlation for the regression line, as measured by r squared, is ≥0.9, when rounded.

human hepatocytes = test system: human hepatocytes
Experimental: Cryopreserved human hepatocytes were thawed and suspended into 50 ml of InVitro GRO HT-medium. The cells were centrifuged (50 g, 5 min) and resuspended into InVitro GRO KHB-medium (protein free). The cell density and viability were determined by trypan blue exclusion method.
Instrumentation: Waters Acquity UPLC+Waters TQ-S triple quadrupole MS; Column: Phenomenex Kinetex Biphenyl (2.1×100 mm, 1.8 μm) column with guard filter; Software: MassLynx 4.2.
The samples were analysed at 0, 30, 60, 90, and 120 minutes (with and without hepatocytes) by LC/MS/MS to monitor substrate depletion and formation of metabolites theophylline, theobromine and paraxanthine.

clinical = details: both, human, in vivo, po

Row | SMILES | Cmax, corr (molecular weight corrected) ([1]; rat plasma, caffeine values multiplied by 0.956) [ng/mL] | formation of metabolite theobromine (human hepatocytes) | substrate depletion (disappearance) (human hepatocytes) | half-life (clinical; 50 mg) [h] | AUC(0-t) (clinical; 52.3 mg) [µM·h] | Cmax (clinical; 52.3 mg) [µM] | MRT (clinical; 52.3 mg) [h] | half-life (clinical; 250 mg) [h] | AUC(0-t) (clinical; 261.7 mg) [µM·h] | Cmax (clinical; 261.7 mg) [µM] | MRT (clinical; 261.7 mg) [h] | total brain exposure (AUClast,corr) higher than caffeine ([1]; rat brain, molecular weight corrected) | total systemic exposure (AUCinf) higher than caffeine ([1]; rat plasma, molecular weight corrected)
1 | Cn1c(=O)c2c(ncn2C)n(C)c1=O [caffeine, reference compound] | 2486 | not detected | No clear disappearance | 5.41 | 47.2 | 5.32 | 7.3 | 4.25 | 206 | 25.1 | 4.3 | – | –
2 | [2H]C([2H])([2H])n1c(=O)c2c(ncn2C([2H])([2H])[2H])n(C([2H])([2H])[2H])c1=O [d9-caffeine, 1,3,7-tri-trideuteromethylxanthine] | – | not detected | No clear disappearance | 32.2 | 192 | 6.62 | 19.7 | 25.6 | 972 | 36.5 | 18.9 | approximately 52% | approximately 77%
